In US7276337B2, “Compositions and methods for visual ribonuclease detection assays” (Integrated DNA Technologies, Inc., priority 2000, dated 2007):

How the values were obtained:
Ribonuclease A = target: T1, Ribonuclease A (Bos taurus, UniProt P61823); test: Visual detection ribonuclease assay, cleavage of Substrate ODN by RNase A; type: biochemical, mammalian; parameters: key to Sensitivity of Substrate ODN to Ribonuclease A, relative signal intensity: +++ = maximum intensity; ++ = moderate intensity; + = faint but above background; − = negative (identical to background); conditions: visual inspection, UV excitation, Substrate 500 nM, 37° C. 60 minutes
T1 sequence (P61823 27-150): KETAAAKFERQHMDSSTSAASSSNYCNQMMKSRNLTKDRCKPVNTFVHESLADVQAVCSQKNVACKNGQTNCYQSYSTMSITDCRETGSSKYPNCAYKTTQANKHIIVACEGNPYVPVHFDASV
Method: Nuclease assays were conducted using the methods of the invention. SEQ ID NO:2 and SEQ ID NO:30 oligonucleotides were individually mixed in 1× Assay Buffer at a concentration of 500 nM (50 pmoles ODN in 100 ul volume) in thin-walled, UV transparent microtubes. RNase A (1 ul, diluted to 0;1 ug/ul) was added to the respective Assay Mixes. […] Assays were set up directly in microtubes as follows:
Assay Mixes were incubated at room temperature for 10 minutes. Assays were visually examined for fluorescence emission directly in the assay tubes without further manipulation. Tubes were suspended above an ultraviolet light source, visually inspected, and photographed using a digital camera. […] The “positive” and “control” reactions appeared markedly different and were easily distinguished. […] The “positive” and “control” reactions were not markedly different to visual inspection.
(§1) Nuclease assays were conducted using the method of the invention with both visual and fluorometric detection methods. Substrates were individually mixed in 1× Assay Buffer at a concentration of 50 nM (50 pmoles oligonucleotide in 1 ml volume) for fluorometric detection or at a concentration of 500 nM (50 pmoles of oligonucleotide in 100 ul volume) for visual detection. Test nucleases were added to respective Assay Mixes beginning at 1 ul stock reagent and proceeding with a 1:10 serial dilution until undetectable. Reaction mixes were incubated at 37° C. for 60 minutes. Fluorometric detection was performed as outlined in Example 2. Visual detection was performed as outlined in Example 1.
(§2) Table 6: Sensitivity of different Substrate ODNs to Ribonuclease A. A series of Substrate ODNs were synthesized and tested for sensitivity to RNase A degradation. Stock enzyme was serial diluted to achieve final concentrations of 1 ng/ml, 100 pg/ml, and 10 pg/ml as indicated. Reactions were examined for fluorescence emission by visual inspection using an ultraviolet (UV) light source for excitation. Results were scored as +++, ++, +, or − based on relative signal intensity.
(§3) It is commonly accepted that fluorometry provides for high sensitivity. To be useful, the visual method must also offer high sensitivity. Assays were conducted using the method of the invention with visual detection. Substrate SEQ ID NO:30 was mixed in 1× Assay Buffer at a concentration of 500 nM (50 pmoles ODN in 100 ul volume) in thin-walled, UV transparent tubes. […] Dilutions of stock RNase A, RNase 1, and RNase T1 were made in water. Undiluted and diluted nuclease (1 ul) was added to respective 100 ul Assay Mixes resulting in final dilution factors of 10^−2, 10^−3, 10^−4, 10^−5, 10^−6, and 10^−7. Assays were incubated at room temperature for 10 minutes and visually examined for fluorescence emission with UV excitation. […] The experiment took about 30 minutes to perform, including 15 minutes to set-up serial dilutions, 10 minutes incubation, and 5 minutes to visualize and photograph. Thus the method of the invention allows for a rapid, simple, and convenient visual assay for the presence of ribonuclease activity.

Ribonuclease T1 = target: T2, Ribonuclease T1 (Aspergillus oryzae, UniProt P00651); test: Visual detection ribonuclease assay, cleavage of Substrate ODN by RNase T1; type: biochemical; parameters: key to Sensitivity of Substrate ODN to Ribonuclease T1, relative signal intensity: +++ = maximum intensity; ++ = moderate intensity; + = faint but above background; − = negative (identical to background); conditions: visual inspection, UV excitation, Substrate 500 nM, 37° C. 60 minutes
T2 sequence (P00651 27-130): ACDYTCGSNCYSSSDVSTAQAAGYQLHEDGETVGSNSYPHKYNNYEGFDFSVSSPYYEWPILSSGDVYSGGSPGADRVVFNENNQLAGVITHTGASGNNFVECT
Method: as §1
as §2, with “Table 7:” for “Table 6:”, “Ribonuclease T1.” for “Ribonuclease A.”, “RNase T1” for “RNase A”, “of 0.001 units/ml, 0.0001 units/ml,” for “of 1 ng/ml, 100 pg/ml,”, “and 0.00001 units/ml” for “and 10 pg/ml”
as §3

Substance | Sensitivity of Substrate ODN to Ribonuclease A, relative signal intensity (Ribonuclease A; RNase A 10 pg/ml) | Sensitivity of Substrate ODN to Ribonuclease A, relative signal intensity (Ribonuclease A; RNase A 100 pg/ml) | Sensitivity of Substrate ODN to Ribonuclease A, relative signal intensity (Ribonuclease A; RNase A 1 ng/ml) | Sensitivity of Substrate ODN to Ribonuclease T1, relative signal intensity (Ribonuclease T1; RNase T1 10^−3 units/ml) | Sensitivity of Substrate ODN to Ribonuclease T1, relative signal intensity (Ribonuclease T1; RNase T1 10^−4 units/ml) | Sensitivity of Substrate ODN to Ribonuclease T1, relative signal intensity (Ribonuclease T1; RNase T1 10^−5 units/ml)
5′ Fluorescein-AaugcA-QSY-7 3′ (NAAUGCAN; 5' fluorescein and 3' QSY-7 labels, nucleotide chemistry not given here) [SEQ ID NO:29] | + | +++ | +++ | +++ | +++ | ++
5′ Fluorescein-AAaAA-Dabcyl 3′ (NAAAAAN; 5' fluorescein and 3' Dabcyl labels, nucleotide chemistry not given here) [SEQ ID NO:6] | − | − | − | − | − | −
5′ Fluorescein-AAcAA-Dabcyl 3′ (NAACAAN; 5' fluorescein and 3' Dabcyl labels, nucleotide chemistry not given here) [SEQ ID NO:5] | − | + | ++ | − | − | −
5′ Fluorescein-AaggucA-QSY-7 3′ (NAAGGUCAN; 5' fluorescein and 3' QSY-7 labels, nucleotide chemistry not given here) [SEQ ID NO:28] | + | ++ | +++ | +++ | +++ | ++
5′ Fluorescein-AgucAA-Dabcyl 3′ (NAGUCAAN; 5' fluorescein and 3' Dabcyl labels, nucleotide chemistry not given here) [SEQ ID NO:10] | − | − | ++ | + | − | −
5′ Fluorescein-AguAA-Dabcyl 3′ (NAGUAAN; 5' fluorescein and 3' Dabcyl labels, nucleotide chemistry not given here) [SEQ ID NO:7] | − | − | + | + | − | −
5′ Fluorescein-AcgaA-Dabcyl 3′ (NACGAAN; 5' fluorescein and 3' Dabcyl labels, nucleotide chemistry not given here) [SEQ ID NO:12] | − | − | ++ | +++ | ++ | −
5′ Fluorescein-AgucaA-Dabcyl 3′ (NAGUCAAN; 5' fluorescein and 3' Dabcyl labels, nucleotide chemistry not given here) [SEQ ID NO:23] | − | + | +++ | ++ | − | −
5′ Fluorescein-AgcuAA-Dabcyl 3′ (NAGCUAAN; 5' fluorescein and 3' Dabcyl labels, nucleotide chemistry not given here) [SEQ ID NO:11] | − | − | ++ | + | − | −
5′ Fluorescein-AgaAA-Dabcyl 3′ (NAGAAAN; 5' fluorescein and 3' Dabcyl labels, nucleotide chemistry not given here) [SEQ ID NO:9] | − | − | − | + | + | −
5′ Fluorescein-AgcuaA-Dabcyl 3′ (NAGCUAAN; 5' fluorescein and 3' Dabcyl labels, nucleotide chemistry not given here) [SEQ ID NO:22] | − | ++ | +++ | +++ | + | −
5′ Fluorescein-AagucA-QSY-7 3′ (NAAGUCAN; 5' fluorescein and 3' QSY-7 labels, nucleotide chemistry not given here) [SEQ ID NO:27] | + | ++ | +++ | +++ | ++ | +
5′ Fluorescein-AagucA-Dabcyl 3′ (NAAGUCAN; 5' fluorescein and 3' Dabcyl labels, nucleotide chemistry not given here) [SEQ ID NO:24] | − | + | +++ | ++ | + | −
